Where two headings read alike, the source gives them in different places. Marks after values point to notes of the source that are not given here.
Columns and labels:
[1] = target: T1, Human cannabinoid receptor CB1R (Homo sapiens, UniProt P21554); assay: Human cannabinoid receptor binding inhibition, [3H]CP55940, CB1R; details: membranes of CB1R-expressing CHO cells, [3H]CP55940 0.5 nM; read-out: Ki CB1 receptor
T1 construct: expressed in transfected cells; host or cells: CHO cells
Experimental: (§1) The crude membrane fractions as Human cannabinoid receptor were then prepared from the CB1R or CB2R-expressing CHO cells. Receptor binding assay was performed by incubating the membranes with each test compound and 38,000 dpm [^3H]CP55940 (at a final concentration of 0.5 nM: NEN Life Science Products) in the assay buffer (50 mM Tris-HCl; 1 mM EDTA, 3 mM MgCl2, pH 7.4) containing 0.5% bovine serum albumin (BSA) for 2 hr at 25° C. The incubation mixture was filtered through 1% polyethylenimine (PEI)-treated GF/C glass filter and washed with 50 mM Tris-HCl (pH 7.4) containing 0.1% BSA. The radioactivity was then counted with a liquid scintillation counter. […] Ki value of test compound is calculated by obtained IC50 value and Kd value of [^3H]CP55940.

[2] = target: T2, Human cannabinoid receptor CB2R (Homo sapiens, UniProt P34972); assay: Human cannabinoid receptor binding inhibition, [3H]CP55940, CB2R; details: membranes of CB2R-expressing CHO cells, [3H]CP55940 0.5 nM; read-out: Ki CB2 receptor
T2 construct: expressed in transfected cells; host or cells: CHO cells
T2 sequence (P34972 whole entry): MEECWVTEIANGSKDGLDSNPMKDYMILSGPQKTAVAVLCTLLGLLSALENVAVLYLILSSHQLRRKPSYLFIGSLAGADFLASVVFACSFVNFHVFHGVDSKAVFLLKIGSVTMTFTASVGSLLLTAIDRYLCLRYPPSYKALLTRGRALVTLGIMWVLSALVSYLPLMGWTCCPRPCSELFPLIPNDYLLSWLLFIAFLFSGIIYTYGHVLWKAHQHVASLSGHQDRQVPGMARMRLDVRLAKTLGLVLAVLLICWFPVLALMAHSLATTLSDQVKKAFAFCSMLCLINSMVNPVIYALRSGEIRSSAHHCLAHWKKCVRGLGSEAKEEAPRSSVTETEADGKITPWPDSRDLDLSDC
Experimental: as §1

human CB1R = target: T3, human CB1R (Homo sapiens, UniProt P21554); assay: cell-based; details: CHO cells expressing human CB1R; read-out: cAMP Inhibition: IC50 CB1
T3 construct: expressed in transfected cells; host or cells: CHO cells
T3 sequence (P21554 whole entry): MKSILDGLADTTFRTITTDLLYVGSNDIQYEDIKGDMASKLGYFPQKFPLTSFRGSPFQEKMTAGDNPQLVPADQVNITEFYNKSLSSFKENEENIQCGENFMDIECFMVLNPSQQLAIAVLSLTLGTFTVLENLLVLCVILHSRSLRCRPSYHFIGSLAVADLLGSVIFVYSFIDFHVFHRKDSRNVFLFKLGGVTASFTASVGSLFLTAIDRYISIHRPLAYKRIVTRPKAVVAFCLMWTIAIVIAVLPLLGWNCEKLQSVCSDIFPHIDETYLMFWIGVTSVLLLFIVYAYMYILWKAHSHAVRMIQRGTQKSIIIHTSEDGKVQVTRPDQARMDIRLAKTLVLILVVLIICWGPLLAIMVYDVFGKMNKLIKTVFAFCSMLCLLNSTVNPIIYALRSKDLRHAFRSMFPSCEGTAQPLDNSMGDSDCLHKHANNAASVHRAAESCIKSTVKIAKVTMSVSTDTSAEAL

human CB2R = target: T4, human CB2R (Homo sapiens, UniProt P34972); assay: Cannabinoid receptor-mediated suppression of forskolin-stimulated cAMP synthesis, CB2R; assay type: cell-based; details: CHO cells expressing human CB2R
T4 construct: expressed in transfected cells; host or cells: CHO cells
T4 sequence (P34972 whole entry): as the sequence (P34972 whole entry) above

mouse CB1 receptor = target: T5, mouse CB1 receptor (Mus musculus, UniProt P47746); assay: Binding inhibitory activity to mouse cannabinoid receptors, brain membrane fraction; design: species or system C57BL/6 J mice
T5 construct: The membrane fractions of mouse brain and spleen that abundantly express CB1 and CB2 receptor, respectively; from tissue; host or cells: mouse brain membrane fraction (C57BL/6 J)
T5 sequence (P47746 whole entry): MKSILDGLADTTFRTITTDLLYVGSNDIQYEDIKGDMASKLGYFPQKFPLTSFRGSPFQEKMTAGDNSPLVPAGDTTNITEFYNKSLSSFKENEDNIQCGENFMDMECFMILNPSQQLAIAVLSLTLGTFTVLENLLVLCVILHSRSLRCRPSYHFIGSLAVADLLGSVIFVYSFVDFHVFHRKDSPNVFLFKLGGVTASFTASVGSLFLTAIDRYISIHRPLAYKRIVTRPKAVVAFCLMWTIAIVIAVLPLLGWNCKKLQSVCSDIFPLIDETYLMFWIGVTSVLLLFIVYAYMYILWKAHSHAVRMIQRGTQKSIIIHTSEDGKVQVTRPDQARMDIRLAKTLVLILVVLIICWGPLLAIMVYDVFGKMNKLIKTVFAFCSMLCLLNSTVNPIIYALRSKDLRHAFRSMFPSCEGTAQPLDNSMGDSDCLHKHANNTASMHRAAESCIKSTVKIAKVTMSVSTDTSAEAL

mouse CB2 receptor = target: T6, mouse CB2 receptor (Mus musculus, UniProt P47936); assay: Binding inhibitory activity to mouse cannabinoid receptors, spleen membrane fraction; design: species or system C57BL/6 J mice
T6 construct: The membrane fractions of mouse brain and spleen that abundantly express CB1 and CB2 receptor, respectively; from tissue; host or cells: mouse spleen membrane fraction (C57BL/6 J)
T6 sequence (P47936 whole entry): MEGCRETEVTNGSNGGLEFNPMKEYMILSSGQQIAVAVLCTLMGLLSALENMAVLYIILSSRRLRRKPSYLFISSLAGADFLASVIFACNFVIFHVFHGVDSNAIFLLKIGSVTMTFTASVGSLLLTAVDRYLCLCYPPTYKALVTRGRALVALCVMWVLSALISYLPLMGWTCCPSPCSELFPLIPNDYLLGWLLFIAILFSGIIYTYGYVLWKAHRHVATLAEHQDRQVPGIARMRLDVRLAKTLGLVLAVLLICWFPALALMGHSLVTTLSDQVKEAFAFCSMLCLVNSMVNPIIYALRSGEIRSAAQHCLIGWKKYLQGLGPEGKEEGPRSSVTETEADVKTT

[3] = system: compound 48/80-induced pruritus; assay: Inhibitory effect on compound 48/80-induced pruritus in ICR strain mice; details: 100 mg/kg (p.o.), ICR mice, compound 48/80-induced scratching
[4] = read-out: cAMP Inhibition: IC50 CB2
[5] = mouse brain membrane fraction, read-out: Binding Assay: Ki Brain (CB1)
[6] = mouse spleen membrane fraction, read-out: Binding Assay: Ki Spleen (CB2)

T1 sequence (P21554 whole entry): as the sequence (P21554 whole entry) above

CCCCn1c2c(cc(C(=O)NCc3ccccc3)c1=O)CCCCCC2 [Compound 4-101]
Ki [1]: 890 nM | Ki [2]: 1.5 nM | IC50 (human CB1R): 60.3 nM | IC50 (human CB2R; forskolin-stimulated cAMP synthesis, read-out: CB2 receptor IC50): 1.4 nM | IC50 (human CB2R; [4]): 1.4 nM | Ki (mouse CB1 receptor; [5]): 35 nM | Ki (mouse CB2 receptor; [6]): 0.6 nM | Antipruritic Effect (%) [3]: 81** %

CCCCn1c2c(cc(C(=O)NC3CCCCC3)c1=O)CCCCCC2 [Compound 10-035]
IC50 (human CB1R): 29 nM | IC50 (human CB2R; [4]): 0.2 nM | Ki (mouse CB1 receptor; [5]): 12 nM | Ki (mouse CB2 receptor; [6]): 0.1 nM | Antipruritic Effect (%) [3]: 93** %

CSC(=S)N1CC2(CCCCC2)CSC1=Nc1ccccc1C(C)C [Compound I-270]
IC50 (human CB1R): 68.7 nM | IC50 (human CB2R; [4]): 7.9 nM | Ki (mouse CB1 receptor; [5]): 80 nM | Ki (mouse CB2 receptor; [6]): 1.2 nM | Antipruritic Effect (%) [3]: 98** %

C=CCSC(=S)N1CC2(CCCCC2)CSC1=Nc1ccccc1OC [II-86]
IC50 (human CB1R): 16.8 nM | IC50 (human CB2R; [4]): 1 nM | Ki (mouse CB1 receptor): 12 nM | Ki (mouse CB2 receptor): 1.1 nM | melting point: 108.5 to 109.5 °C | Antipruritic Effect (%) [3]: 98** %

Source: patent US20080312292A1, “Antipruritics” (priority 2002, published 2008)
